The values that follow come from patent US11116848B2, “Selective UV crosslinking of peptides and functional moieties to immunoglobulins” (University of Notre Dame du Lac, priority 2013, dated 2021).

The target in assay [1] is nucleotide binding site (NBS). As to conditions: read-out: previously reported Kd for IBA/NBS interactions; cited from earlier work.
In assay [2] the test system is CD20 negative myeloma cell lines, U266, H929, and MM.1S. The assay can be described thus: CD20 antigen detection flow cytometry assay. It counts as cell-based. The following applies: conjugate 200 nM, photocrosslinked at 1 J/cm^2; U266, H929, MM.1S. As to the method: IM9, U266, H929, and MM.1S cell lines were cultured in RPMI 1640 media containing 10% FBS, 2 mM L-glutamine, 100 U/mL penicillin, and 100 μg/mL streptomycin. […] IBA-FITC was photocrosslinked to Rituximab at the indicated UV energies. All cell lines were used at a density of 0.5×10^6 cells/mL in blocking buffer (1.5% BSA in PBS pH 7.4) and initially incubated for 30 min on ice. […] Samples were washed three times and analyzed on a Guava easyCyte 8HT flow cytometer.
For orientation: A flow cytometer gives signals particle by particle.

As for `O=C(O)CCCc1c[nH]c2ccccc12` [IBA, indole-3-butyric acid], in assay [1], the Kd was 1 to 8 µM. In the case of Rituximab-IBA-FITC conjugate, the “binding to CD20 negative cell lines” value in assay [2] is listed as “negligible binding”.
